Experimental data taken from PubChem BioAssay AID1259408 (Genetic Toxicology Data Bank (GENE-TOX), 2018).
Calls of active or inactive are those of the source. No rule for the calls is given here.

Tested on: GENE-TOX genotoxicity assays, various organisms and cells
Assay: GENE-TOX mutagenicity studies
Conditions: for call: Assay Type: In vivo carcinogenicity studies
[1] = Species/Cell Type: Drosophila melanogaster, Assay Type: Sex-linked recessive lethal gene mutation, Assay Code: SRL+, Evaluation Type: Evaluation A (Pre-1980)
[2] = Species/Cell Type: Nonhuman bone marrow, Assay Type: Chromosome aberrations, in vivo, Assay Code: CY#+D, Dose Response: With dose response, Evaluation Type: Evaluation A (Pre-1980)
[3] = Species/Cell Type: Salmonella typhimurium (one or more of the five standard strains: TA98, TA100, TA1535, TA1537, and TA1538), Assay Type: Histidine reverse gene mutation, Ames assay, Assay Code: SAL+, Evaluation Type: Evaluation A (Pre-1980)
[4] = Species/Cell Type: Salmonella typhimurium (one or more of the five standard strains: TA98, TA100, TA1535, TA1537, and TA1538), Assay Type: Histidine reverse gene mutation, Ames assay, Assay Code: SALT, Evaluation Type: Evaluation A (Pre-1980)
[5] = Species/Cell Type: Chinese hamster lung (V79) cells, Assay Type: Forward gene mutation at the HPRT or ouabain locus, Assay Code: V79-*, Activation: With metabolic activation, Evaluation Type: Evaluation A (Pre-1980)
[6] = Species/Cell Type: Escherichia coli polA (W3119 vs P3478), Assay Type: Rec-assay, DNA effects (bacterial DNA repair), Assay Code: RE1T, Evaluation Type: Evaluation A (Pre-1980)
[7] = Species/Cell Type: Salmonella typhimurium (one or more of the five standard strains: TA98, TA100, TA1535, TA1537, and TA1538), Assay Type: Histidine reverse gene mutation, Ames assay, Assay Code: SAL+*, Activation: With metabolic activation, Evaluation Type: Evaluation A (Pre-1980)
[8] = Species/Cell Type: Saccharomyces cerevisiae, Assay Type: Mitotic recombination or gene conversion, Assay Code: YEH-, Evaluation Type: Evaluation A (Pre-1980)
[9] = Species/Cell Type: Mammalian polychromatic erythrocytes, Assay Type: Micronucleus test, chromosome aberrations, Assay Code: MNTT, Evaluation Type: Evaluation B (Post-1980)
[10] = Species/Cell Type: Salmonella typhimurium (one or more of the five standard strains: TA98, TA100, TA1535, TA1537, and TA1538), Assay Type: Histidine reverse gene mutation, Ames assay, Assay Code: SAL-, Evaluation Type: Evaluation A (Pre-1980)

O=C(O)COc1cc(Cl)c(Cl)cc1Cl
mutagenic call (Species/Cell Type: Drosophila melanogaster, Assay Type: Aneuploidy, sex chromosome gain, chromosome aberrations, Assay Code: DAG-M-F, Evaluation Type: Evaluation A (Pre-1980)): inactive; negative | mutagenic call (Species/Cell Type: Drosophila melanogaster, Assay Type: Aneuploidy, whole sex chromosome loss, chromosome aberrations, Assay Code: DAC-M-F, Evaluation Type: Evaluation A (Pre-1980)): inactive; negative | mutagenic call [1]: active; positive | mutagenic call (Species/Cell Type: Drosophila melanogaster, Assay Type: Sex-linked recessive lethal gene mutation, Assay Code: SRLT, Evaluation Type: Evaluation A (Pre-1980)): no conclusion | mutagenic call (Species/Cell Type: Mammalian polychromatic erythrocytes, Assay Type: Micronucleus test, chromosome aberrations, Assay Code: MNTT, Evaluation Type: Evaluation A (Pre-1980)): no conclusion | mutagenic call [2]: active; positive | mutagenic call (Species/Cell Type: Saccharomyces cerevisiae, Assay Type: Reverse gene mutation, Assay Code: YER+, Evaluation Type: Evaluation A (Pre-1980)): active; positive | mutagenic call (Species/Cell Type: Salmonella typhimurium, Serratia marcesens, Assay Type: Forward and reverse gene mutation, host-mediated assay, Assay Code: HM2T, Evaluation Type: Evaluation A (Pre-1980)): no conclusion | mutagenic call (Species/Cell Type: Vicia faba, Assay Type: Chromosome aberrations, Assay Code: VIC+, Evaluation Type: Evaluation A (Pre-1980)): active; positive

CC(=O)Nc1ccc(N=NN(C)C)cc1
mutagenic call [1]: active; positive | mutagenic call (Species/Cell Type: Saccharomyces cerevisiae, Assay Type: Mitotic recombination or gene conversion, Assay Code: YEH+/-*, Activation: With metabolic activation, Evaluation Type: Evaluation A (Pre-1980)): inactive; positive without activation, negative with activation

CCOS(=O)(=O)OCCOS(=O)(=O)OCC
mutagenic call (Species/Cell Type: Schizosaccharomyces pombe, Assay Type: Reverse gene mutation, Assay Code: YEZ+, Evaluation Type: Evaluation A (Pre-1980)): active; positive

O=C1N(CCO)CCN1/N=C/c1ccc([N+](=O)[O-])o1
mutagenic call [3]: active; positive

O=C1C=Cc2ccc3c4c(ccc1c24)C(=O)c1ccccc1-3
mutagenic call (Species/Cell Type: Chinese hamster lung (V79) cells, Assay Type: Forward gene mutation at the HPRT or ouabain locus, Assay Code: V79+, Evaluation Type: Evaluation A (Pre-1980)): active; positive | call (Species/Cell Type: Nonhuman, Assay Code: CCGT, Evaluation Type: Evaluation A (Pre-1980)): no conclusion | mutagenic call [4]: no conclusion

O[C@@H]1[C@H](O)[C@@H](O)c2cc3ccc4cccc5ccc(c2[C@@H]1O)c3c45
mutagenic call [5]: inactive; negative

Cc1cc2c(C)c3ccccc3c(C)c2c2ccccc12
mutagenic call [5]: inactive; negative

C[C@]12CCC[C@H](O1)c1c(cc3c(c1O)C(=O)c1c(O)cc(O)cc1C3=O)O2
mutagenic call [4]: no conclusion

O=C(OCN=Nc1ccccc1)c1ccccc1
mutagenic call [6]: no conclusion

O=NN1CCC(c2ccccc2)CC1
mutagenic call [7]: active; positive

COC(=O)NC(=S)Nc1ccccc1NC(=S)NC(=O)OC
mutagenic call (Species/Cell Type: Aspergillus nidulans, Assay Type: Aneuploidy, chromosome aberrations, Assay Code: ASN+, Evaluation Type: Evaluation A (Pre-1980)): active; positive | mutagenic call (Species/Cell Type: Mammalian germ cells, Sex: Male, Assay Type: Chromosome aberrations in vivo, Assay Code: CY9-, Evaluation Type: Evaluation A (Pre-1980)): inactive; negative

c1ccc(-c2ccccc2)cc1
mutagenic call (Species/Cell Type: Human diploid fibroblasts, Assay Type: Unscheduled DNA synthesis (UDS) in vitro, DNA effects, Assay Code: UDH-, Evaluation Type: Evaluation A (Pre-1980)): inactive; negative | mutagenic call (Species/Cell Type: Nonhuman, Assay Type: Sister-chromatid exchange (SCE) in vitro, Assay Code: SC2+D, Dose Response: With dose response, Evaluation Type: Evaluation A (Pre-1980)): active; positive | mutagenic call (Species/Cell Type: Rat primary hepatocytes, Assay Type: Unscheduled DNA synthesis (UDS) in vitro, DNA effects, Assay Code: UDP-, Evaluation Type: Evaluation A (Pre-1980)): inactive; negative | mutagenic call [8]: inactive; negative

CC(=O)[O-].CC(=O)[O-].O.O.O.[Pb+2]
mutagenic call (Species/Cell Type: Allium cepa, Assay Type: Chromosome aberrations, Assay Code: ALC+D, Dose Response: With dose response, Evaluation Type: Evaluation A (Pre-1980)): active; positive | mutagenic call (Species/Cell Type: Nonhuman, Assay Type: Sister-chromatid exchange (SCE) in vitro, Assay Code: SC2T, Evaluation Type: Evaluation B (Post-1980)): no conclusion

CCN(CC)C(=S)SSC(=S)N(CC)CC
mutagenic call [9]: no conclusion | call (Species/Cell Type: Nonhuman, Assay Code: CCG-, Evaluation Type: Evaluation A (Pre-1980)): inactive; negative

COc1cc([C@@H]2c3cc4c(cc3[C@@H](O[C@@H]3O[C@H](CO)[C@@H](O)[C@H](O)[C@H]3O)[C@H]3COC(=O)[C@H]23)OCO4)cc(OC)c1O
mutagenic call (Species/Cell Type: Chinese hamster ovary (CHO) cells, Assay Type: Forward gene mutation at the HPRT locus, Assay Code: CHO+, Evaluation Type: Evaluation B (Post-1980)): active; positive

CC(=O)OC[C@]12C[C@H](OC(=O)CC(C)C)C(C)=C[C@H]1O[C@@H]1[C@H](O)[C@@H](OC(C)=O)[C@@]2(C)[C@]12CO2
mutagenic call (Species/Cell Type: Bacillus subtilis (H17 vs M45), Assay Type: Rec-assay, spot test, DNA effects (bacterial DNA repair), Assay Code: REW-, Evaluation Type: Evaluation A (Pre-1980)): inactive; negative | mutagenic call [8]: inactive; negative | mutagenic call [4]: no conclusion

COc1ccc(C(=O)/C(Br)=C/C(=O)O)cc1
mutagenic call (Species/Cell Type: Human bone marrow, Assay Type: Chromosome aberrations in vivo, Assay Code: CY5+, Evaluation Type: Evaluation A (Pre-1980)): active; positive | mutagenic call [2]: active; positive

O=C(Nc1cc(Cl)cc(Cl)c1O)c1c(O)c(Cl)cc(Cl)c1Cl
mutagenic call [9]: no conclusion

Cn1c(N)nc2c3cccnc3ccc21
mutagenic call (Species/Cell Type: Chinese hamster ovary (CHO) cells, Assay Type: Forward gene mutation at the HPRT locus, Assay Code: CHOT, Evaluation Type: Evaluation B (Post-1980)): no conclusion | mutagenic call (Species/Cell Type: Mammalian polychromatic erythrocytes, Assay Type: Micronucleus test, chromosome aberrations, Assay Code: MNT-, Evaluation Type: Evaluation B (Post-1980)): inactive; negative | mutagenic call (Species/Cell Type: Nonhuman, Assay Type: Sister-chromatid exchange (SCE) in vitro, Assay Code: SC2+D*, Activation: With metabolic activation, Dose Response: With dose response, Evaluation Type: Evaluation B (Post-1980)): active; positive | mutagenic call (Species/Cell Type: Nonhuman, Assay Type: Sister-chromatid exchange (SCE) in vivo, Assay Code: SC3+, Evaluation Type: Evaluation B (Post-1980)): active; positive

Brc1ccccc1
mutagenic call [6]: no conclusion | mutagenic call (Species/Cell Type: Mammalian polychromatic erythrocytes, Assay Type: Micronucleus test, chromosome aberrations, Assay Code: MNT+, Evaluation Type: Evaluation B (Post-1980)): active; positive | mutagenic call [8]: inactive; negative | mutagenic call [10]: inactive; negative | mutagenic call (Species/Cell Type: Salmonella typhimurium, Assay Type: Forward and reverse gene mutation, host-mediated assay, Assay Code: HMA-, Evaluation Type: Evaluation A (Pre-1980)): inactive; negative | mutagenic call (Species/Cell Type: Syrian hamster embryo (SHE) cells, Assay Type: Cell transformation, clonal assay, Assay Code: CTC-, Evaluation Type: Evaluation A (Pre-1980)): inactive; negative

CCCCO
mutagenic call (Species/Cell Type: Nonhuman, Assay Type: Sister-chromatid exchange (SCE) in vitro, Assay Code: SC2-, Evaluation Type: Evaluation A (Pre-1980)): inactive; negative | mutagenic call [10]: inactive; negative

Cc1cc(C)c(C)c(OC(=O)N(C)N=O)c1
mutagenic call [3]: active; positive

[Cl][Ir-2]([Cl])([Cl])([Cl])([Cl])[Cl]
mutagenic call (Species/Cell Type: Bacillus subtilis (H17 vs M45), Assay Type: Rec-assay, spot test, DNA effects (bacterial DNA repair), Assay Code: REW+, Evaluation Type: Evaluation A (Pre-1980)): active; positive

O[C@@H]1C=Cc2cc3ccc4cccc5ccc(c2[C@@H]1O)c3c45
mutagenic call (Species/Cell Type: Chinese hamster lung (V79) cells, Assay Type: Forward gene mutation at the HPRT or ouabain locus, Assay Code: V79-, Evaluation Type: Evaluation A (Pre-1980)): inactive; negative | mutagenic call [4]: no conclusion

C1=CC2c3ccccc3OC2O1 (stereo not given)
mutagenic call [7]: active; positive
